Results published in patent US20050002991A1, “Prophylactic agent of hypertension containing a conjugated fatty acid as an effective ingredient and the use thereof” (RINORU OIL MILLS CO., LTD., priority 2003, published 2005).
Marks after values point to notes of the source that are not given here.

Test system: OLETF rats
Assay: Systolic blood pressure of OLETF rats fed CLA-supplemented diet (indirect tail cuff method)
Assay type: in vivo, rat
Details: male OLETF rats; for Blood pressure, initial value / Blood pressure, 1 Week / Blood pressure, 2 Weeks / Blood pressure, 3 Weeks: systolic; for Blood pressure, initial value: baseline before feeding the diet supplemented with 0.5% of the substance; for Blood pressure, 1 Week / Blood pressure, 2 Weeks / Blood pressure, 3 Weeks: diet supplemented with 0.5% of the substance; for Blood pressure, 1 Week: 1 week of feeding; for Blood pressure, 2 Weeks: 2 weeks of feeding; for Blood pressure, 3 Weeks: 3 weeks of feeding; for Systolic blood pressure compared with control group (in words): 0.5% in diet, up to 3 weeks, control = high linoleic safflower oil
From the text: Male OLETF rats (7 weeks old), an animal model of non-insulin dependent diabetes mellitus, were assigned to three groups that were fed ad libitum with a semisynthetic diet (AIN-76) supplemented with 0.5% high linoleic safflower oil (Rinoru Oil Mills Co., Ltd.; control group), or a semisynthetic diet supplemented with 0.5% 9cis,11trans-CLA, and a semisynthetic diet supplemented with 0.5% 10trans,12cis-CLA for three weeks. […]
It has been found from the above-described results that systolic blood pressure is lowered in rats fed with the 10trans, 12cis-CLA.

## CCCCCC/C=C/C=C\CCCCCCCC(=O)O [9cis, 11trans-CLA, 9cis,11trans-CLA]
  Blood pressure, initial value: 103 ± 3 mmHg
  Blood pressure, 1 Week: 131 ± 3 mmHg
  Blood pressure, 2 Weeks: 148 ± 4^a mmHg
  Blood pressure, 3 Weeks: 154 ± 4^a mmHg

## conjugated linoleic acid [CLA]
  Systolic blood pressure compared with control group (in words): tends to lower

## CCCCC/C=C\C=C\CCCCCCCCC(=O)O [10trans, 12cis-CLA, 10trans,12cis-CLA]
  Systolic blood pressure compared with control group (in words): lowered
  Blood pressure, initial value: 106 ± 4 mmHg
  Blood pressure, 1 Week: 125 ± 6 mmHg
  Blood pressure, 2 Weeks: 128 ± 5^b mmHg
  Blood pressure, 3 Weeks: 132 ± 3^b mmHg
Listed as 10trans,12cis-CLA
  Systolic blood pressure compared with control group (in words): significantly suppressed
